In the supplement of paper PMC10307832:

What was measured:
Experiment in all cases: relative viability (nuclei count vs DMSO), 5 days (fraction); higher = more cells survive
NCI-H2347 = tested on: NCI-H2347
Summary of the method: (§1)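 Lung cancer cell lines were pin-tool dosed in 1536-well plates on the day after seeding, with either a lone drug or a fixed anchor-drug dose plus five library-drug doses (not always all listed) in √10 steps. Nuclei were counted on 4× images after 5 days. Relative viability is the ratio of treated-well to vehicle-well nuclei counts, with each value a median of duplicate plates.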

NCI-H460 = tested on: NCI-H460
Summary of the method: as §1

SW 1573 = tested on: SW 1573
Summary of the method: as §1

HCC-78 = tested on: HCC-78
Summary of the method: as §1

RERF-LC-KJ = tested on: RERF-LC-KJ
Summary of the method: as §1

NCI-H1915 = tested on: NCI-H1915
Summary of the method: as §1

LXF-289 = tested on: LXF-289
Summary of the method: as §1

HCC-15 = tested on: HCC-15
Summary of the method: as §1

NCI-H2126 = tested on: NCI-H2126
Summary of the method: as §1

NCI-H2228 = tested on: NCI-H2228
Summary of the method: as §1

A-427 = tested on: A-427
Summary of the method: as §1

LC-2-ad = tested on: LC-2-ad
Summary of the method: as §1

SK-LU-1 = tested on: SK-LU-1
Summary of the method: as §1

PC-3 [JPC-3] = tested on: PC-3 [JPC-3]
Summary of the method: as §1

NCI-H647 = tested on: NCI-H647
Summary of the method: as §1

NCI-H1755 = tested on: NCI-H1755
Summary of the method: as §1

LOU-NH91 = tested on: LOU-NH91
Summary of the method: as §1

NCI-H1792 = tested on: NCI-H1792
Summary of the method: as §1

NCI-H1734 = tested on: NCI-H1734
Summary of the method: as §1

HOP-62 = tested on: HOP-62
Summary of the method: as §1

NCI-H1975 = tested on: NCI-H1975
Summary of the method: as §1

**Q.** Which relative viability (NCI-H2347; first compound 0.04 µM) does the source give for `Clc1ccc(Nc2nnc(Cc3ccncc3)c3ccccc23)cc1` [Vatalanib] + CC1(C)CCC(c2ccc(Cl)cc2)=C(CN2CCN(c3ccc(C(=O)NS(=O)(=O)c4ccc(N[C@H](CCN5CCOCC5)CSc5ccccc5)c(S(=O)(=O)C(F)(F)F)c4)cc3)CC2)C1 [Navitoclax] (partner 0.5 µM) here?
**A.** 0.861

**Q.** And the relative viability (NCI-H2347; first compound 0.1265 µM)?
**A.** 0.78

**Q.** And the relative viability (NCI-H2347; first compound 0.4 µM)?
**A.** 0.885

**Q.** And the relative viability (NCI-H2347; first compound 1.265 µM)?
**A.** 0.739

**Q.** What about the relative viability (NCI-H2347; first compound 4 µM) of the same compound?
**A.** 0.796

**Q.** And the relative viability (NCI-H460; first compound 0.04 µM)?
**A.** 1.17

**Q.** What about the relative viability (NCI-H460; first compound 0.1265 µM) of the same compound?
**A.** 1.09

**Q.** What about the relative viability (NCI-H460; first compound 0.4 µM) of the same compound?
**A.** 1.11

**Q.** What about the relative viability (NCI-H460; first compound 1.265 µM) of the same compound?
**A.** 1.04

**Q.** What about the relative viability (NCI-H460; first compound 4 µM) of the same compound?
**A.** 1.11

**Q.** What about the relative viability (SW 1573; first compound 0.04 µM) of the same compound?
**A.** 0.938

**Q.** What about the relative viability (SW 1573; first compound 0.1265 µM) of the same compound?
**A.** 1.03

**Q.** What about the relative viability (SW 1573; first compound 0.4 µM) of the same compound?
**A.** 1.02

**Q.** And the relative viability (SW 1573; first compound 1.265 µM)?
**A.** 0.872

**Q.** What about the relative viability (SW 1573; first compound 4 µM) of the same compound?
**A.** 0.969

**Q.** What about the relative viability (HCC-78; first compound 0.04 µM) of the same compound?
**A.** 0.714

**Q.** And the relative viability (HCC-78; first compound 0.1265 µM)?
**A.** 0.76

**Q.** What about the relative viability (HCC-78; first compound 0.4 µM) of the same compound?
**A.** 0.888

**Q.** And the relative viability (HCC-78; first compound 4 µM)?
**A.** 0.72

**Q.** And the relative viability (RERF-LC-KJ; first compound 0.04 µM)?
**A.** 1.1

**Q.** What about the relative viability (RERF-LC-KJ; first compound 0.1265 µM) of the same compound?
**A.** 0.959

**Q.** What about the relative viability (RERF-LC-KJ; first compound 0.4 µM) of the same compound?
**A.** 0.951

**Q.** What about the relative viability (RERF-LC-KJ; first compound 1.265 µM) of the same compound?
**A.** 0.79

**Q.** What about the relative viability (RERF-LC-KJ; first compound 4 µM) of the same compound?
**A.** 0.822

**Q.** And the relative viability (NCI-H1915; first compound 0.04 µM)?
**A.** 0.805

**Q.** What about the relative viability (NCI-H1915; first compound 0.1265 µM) of the same compound?
**A.** 0.796

**Q.** And the relative viability (NCI-H1915; first compound 0.4 µM)?
**A.** 0.771

**Q.** What about the relative viability (NCI-H1915; first compound 1.265 µM) of the same compound?
**A.** 0.794

**Q.** And the relative viability (NCI-H1915; first compound 4 µM)?
**A.** 0.779

**Q.** And the relative viability (LXF-289; first compound 0.04 µM)?
**A.** 0.971

**Q.** What about the relative viability (LXF-289; first compound 0.1265 µM) of the same compound?
**A.** 0.901

**Q.** And the relative viability (LXF-289; first compound 0.4 µM)?
**A.** 0.989

**Q.** And the relative viability (LXF-289; first compound 1.265 µM)?
**A.** 0.852

**Q.** What about the relative viability (LXF-289; first compound 4 µM) of the same compound?
**A.** 0.899

**Q.** What about the relative viability (HCC-15; first compound 0.04 µM) of the same compound?
**A.** 0.719

**Q.** What about the relative viability (HCC-15; first compound 0.1265 µM) of the same compound?
**A.** 0.713

**Q.** What about the relative viability (HCC-15; first compound 0.4 µM) of the same compound?
**A.** 0.767

**Q.** What about the relative viability (HCC-15; first compound 1.265 µM) of the same compound?
**A.** 0.737

**Q.** What about the relative viability (HCC-15; first compound 4 µM) of the same compound?
**A.** 0.654

**Q.** What about the relative viability (NCI-H2126; first compound 0.04 µM) of the same compound?
**A.** 0.834

**Q.** What about the relative viability (NCI-H2126; first compound 0.1265 µM) of the same compound?
**A.** 0.914

**Q.** What about the relative viability (NCI-H2126; first compound 0.4 µM) of the same compound?
**A.** 0.851

**Q.** And the relative viability (NCI-H2126; first compound 1.265 µM)?
**A.** 0.801

**Q.** What about the relative viability (NCI-H2126; first compound 4 µM) of the same compound?
**A.** 0.76

**Q.** What about the relative viability (NCI-H2228; first compound 0.04 µM) of the same compound?
**A.** 0.845

**Q.** And the relative viability (NCI-H2228; first compound 0.1265 µM)?
**A.** 0.92

**Q.** And the relative viability (NCI-H2228; first compound 0.4 µM)?
**A.** 1.1

**Q.** What about the relative viability (NCI-H2228; first compound 1.265 µM) of the same compound?
**A.** 0.755

**Q.** And the relative viability (NCI-H2228; first compound 4 µM)?
**A.** 0.83

**Q.** What about the relative viability (A-427; first compound 0.04 µM) of the same compound?
**A.** 0.998

**Q.** And the relative viability (A-427; first compound 0.1265 µM)?
**A.** 0.92

**Q.** What about the relative viability (A-427; first compound 0.4 µM) of the same compound?
**A.** 0.867

**Q.** What about the relative viability (A-427; first compound 1.265 µM) of the same compound?
**A.** 0.794

**Q.** And the relative viability (A-427; first compound 4 µM)?
**A.** 0.98

**Q.** What about the relative viability (LC-2-ad; first compound 0.04 µM) of the same compound?
**A.** 0.415

**Q.** And the relative viability (LC-2-ad; first compound 0.1265 µM)?
**A.** 0.456

**Q.** And the relative viability (LC-2-ad; first compound 0.4 µM)?
**A.** 0.558

**Q.** What about the relative viability (LC-2-ad; first compound 1.265 µM) of the same compound?
**A.** 0.412

**Q.** What about the relative viability (LC-2-ad; first compound 4 µM) of the same compound?
**A.** 0.529

**Q.** What about the relative viability (SK-LU-1; first compound 0.04 µM) of the same compound?
**A.** 0.755

**Q.** And the relative viability (SK-LU-1; first compound 0.1265 µM)?
**A.** 0.594

**Q.** And the relative viability (SK-LU-1; first compound 0.4 µM)?
**A.** 0.742

**Q.** What about the relative viability (SK-LU-1; first compound 1.265 µM) of the same compound?
**A.** 0.832

**Q.** What about the relative viability (SK-LU-1; first compound 4 µM) of the same compound?
**A.** 0.82

**Q.** And the relative viability (PC-3 [JPC-3]; first compound 0.04 µM)?
**A.** 0.725

**Q.** What about the relative viability (PC-3 [JPC-3]; first compound 0.1265 µM) of the same compound?
**A.** 0.832

**Q.** And the relative viability (PC-3 [JPC-3]; first compound 0.4 µM)?
**A.** 0.848

**Q.** And the relative viability (PC-3 [JPC-3]; first compound 1.265 µM)?
**A.** 0.739

**Q.** And the relative viability (PC-3 [JPC-3]; first compound 4 µM)?
**A.** 0.757

**Q.** And the relative viability (NCI-H647; first compound 0.04 µM)?
**A.** 1.08

**Q.** And the relative viability (NCI-H647; first compound 0.1265 µM)?
**A.** 1.01

**Q.** And the relative viability (NCI-H647; first compound 1.265 µM)?
**A.** 1.05

**Q.** And the relative viability (NCI-H647; first compound 4 µM)?
**A.** 0.957

**Q.** And the relative viability (NCI-H1755; first compound 0.04 µM)?
**A.** 1.06

**Q.** What about the relative viability (NCI-H1755; first compound 0.1265 µM) of the same compound?
**A.** 0.972

**Q.** What about the relative viability (NCI-H1755; first compound 0.4 µM) of the same compound?
**A.** 1.03

**Q.** What about the relative viability (NCI-H1755; first compound 1.265 µM) of the same compound?
**A.** 0.821

**Q.** What about the relative viability (NCI-H1755; first compound 4 µM) of the same compound?
**A.** 0.993

**Q.** And the relative viability (LOU-NH91; first compound 0.04 µM)?
**A.** 0.703

**Q.** What about the relative viability (LOU-NH91; first compound 0.1265 µM) of the same compound?
**A.** 0.558

**Q.** What about the relative viability (LOU-NH91; first compound 0.4 µM) of the same compound?
**A.** 0.61

**Q.** And the relative viability (LOU-NH91; first compound 1.265 µM)?
**A.** 0.612

**Q.** And the relative viability (LOU-NH91; first compound 4 µM)?
**A.** 0.61

**Q.** And the relative viability (NCI-H1792; first compound 0.04 µM)?
**A.** 0.648

**Q.** And the relative viability (NCI-H1792; first compound 0.1265 µM)?
**A.** 0.611

**Q.** What about the relative viability (NCI-H1792; first compound 0.4 µM) of the same compound?
**A.** 0.688

**Q.** And the relative viability (NCI-H1792; first compound 1.265 µM)?
**A.** 0.678

**Q.** What about the relative viability (NCI-H1792; first compound 4 µM) of the same compound?
**A.** 0.624

**Q.** What about the relative viability (NCI-H1734; first compound 0.04 µM) of the same compound?
**A.** 0.921

**Q.** What about the relative viability (NCI-H1734; first compound 0.1265 µM) of the same compound?
**A.** 0.719

**Q.** And the relative viability (NCI-H1734; first compound 0.4 µM)?
**A.** 0.927

**Q.** What about the relative viability (NCI-H1734; first compound 1.265 µM) of the same compound?
**A.** 0.823

**Q.** And the relative viability (NCI-H1734; first compound 4 µM)?
**A.** 0.822

**Q.** And the relative viability (HOP-62; first compound 0.04 µM)?
**A.** 1.05

**Q.** And the relative viability (HOP-62; first compound 0.1265 µM)?
**A.** 0.958

**Q.** What about the relative viability (HOP-62; first compound 0.4 µM) of the same compound?
**A.** 1.07

**Q.** And the relative viability (HOP-62; first compound 1.265 µM)?
**A.** 0.949

**Q.** And the relative viability (HOP-62; first compound 4 µM)?
**A.** 1.07

**Q.** What about the relative viability (NCI-H1975; first compound 0.04 µM) of the same compound?
**A.** 1.09

**Q.** And the relative viability (NCI-H1975; first compound 0.1265 µM)?
**A.** 1

**Q.** And the relative viability (NCI-H1975; first compound 0.4 µM)?
**A.** 1.17

**Q.** And the relative viability (NCI-H1975; first compound 1.265 µM)?
**A.** 0.945

**Q.** What about the relative viability (NCI-H1975; first compound 4 µM) of the same compound?
**A.** 0.815
